From ChEMBL document CHEMBL4507286 (2021)

Tests used:
[1] = biological target: MAP/microtubule affinity-regulating kinase 4 (Homo sapiens) (UniProt Q96L34)
[2] = biological target: Death-associated protein kinase 1 (Homo sapiens) (UniProt P53355)
[3] = biological target: Serine/threonine-protein kinase 32B (Homo sapiens) (UniProt Q9NY57)
[4] = biological target: D(1B) dopamine receptor (Homo sapiens) (UniProt P21918); details: Compound concentration 10.0 uM
[5] = biological target: SRSF protein kinase 1 (Homo sapiens) (UniProt Q96SB4)
[6] = biological target: Mitogen-activated protein kinase 15 (Homo sapiens) (UniProt Q8TD08)
[7] = biological target: Rhodopsin kinase GRK7 (Homo sapiens) (UniProt Q8WTQ7)
[8] = biological target: 5-hydroxytryptamine receptor 3A (Homo sapiens) (UniProt P46098); details: Compound concentration 10.0 uM
[9] = biological target: Death-associated protein kinase 3 (Homo sapiens) (UniProt O43293)
[10] = biological target: Leukocyte tyrosine kinase receptor (Homo sapiens) (UniProt P29376)
[11] = biological target: Cyclin-dependent kinase 4 (Homo sapiens) (UniProt P11802)
[12] = biological target: Dual specificity tyrosine-phosphorylation-regulated kinase 2 (Homo sapiens) (UniProt Q92630)
[13] = biological target: Myosin-IIIb (Homo sapiens) (UniProt Q8WXR4)
[14] = test system: Proto-oncogene tyrosine-protein kinase receptor Ret (Homo sapiens), P07949 [V804L]
[15] = biological target: Phosphatidylinositol 4,5-bisphosphate 3-kinase catalytic subunit alpha isoform (Homo sapiens) (UniProt P42336)
[16] = biological target: 5-hydroxytryptamine receptor 1A (Homo sapiens) (UniProt P08908); details: Compound concentration 10.0 uM
[17] = biological target: Tyrosine-protein kinase ABL2 (Homo sapiens) (UniProt P42684)
[18] = biological target: Beta-adrenergic receptor kinase 1 (Homo sapiens) (UniProt P25098)
[19] = biological target: Mitogen-activated protein kinase 11 (Homo sapiens) (UniProt Q15759)
[20] = biological target: Dual specificity mitogen-activated protein kinase kinase 1 (Homo sapiens) (UniProt Q02750)
[21] = test system: Proto-oncogene tyrosine-protein kinase receptor Ret (Homo sapiens), P07949 [V804M]
[22] = biological target: Platelet-derived growth factor receptor beta (Homo sapiens) (UniProt P09619)
[23] = biological target: Serine/threonine-protein kinase 36 (Homo sapiens) (UniProt Q9NRP7)
[24] = biological target: Myosin light chain kinase family member 4 (Homo sapiens) (UniProt Q86YV6)
[25] = biological target: Interleukin-1 receptor-associated kinase 4 (Homo sapiens) (UniProt Q9NWZ3)
[26] = biological target: Alpha-1A adrenergic receptor (Homo sapiens) (UniProt P35348); details: Compound concentration 10.0 uM
[27] = biological target: Focal adhesion kinase 1 (Homo sapiens) (UniProt Q05397)
[28] = biological target: Serine/threonine-protein kinase TAO3 (Homo sapiens) (UniProt Q9H2K8)
[29] = biological target: Serine/threonine-protein kinase Nek1 (Homo sapiens) (UniProt Q96PY6)
[30] = biological target: Serine/threonine-protein kinase SIK3 (Homo sapiens) (UniProt Q9Y2K2)
[31] = test system: Phosphatidylinositol 4,5-bisphosphate 3-kinase catalytic subunit alpha isoform (Homo sapiens), P42336 [C420R]
[32] = test system: Phosphatidylinositol 4,5-bisphosphate 3-kinase catalytic subunit alpha isoform (Homo sapiens), P42336 [H1047L]
[33] = biological target: 5'-AMP-activated protein kinase catalytic subunit alpha-2 (Homo sapiens) (UniProt P54646)
[34] = biological target: Interleukin-1 receptor-associated kinase 3 (Homo sapiens) (UniProt Q9Y616)
[35] = biological target: Serine/threonine-protein kinase WNK4 (Homo sapiens) (UniProt Q96J92)
[36] = biological target: Tyrosine-protein kinase TXK (Homo sapiens) (UniProt P42681)
[37] = biological target: Mitogen-activated protein kinase kinase kinase 12 (Homo sapiens) (UniProt Q12852)
[38] = biological target: Histamine H1 receptor (Homo sapiens) (UniProt P35367); details: Compound concentration 10.0 uM
[39] = biological target: Proto-oncogene tyrosine-protein kinase Src (Homo sapiens) (UniProt P12931)
[40] = biological target: Homeodomain-interacting protein kinase 2 (Homo sapiens) (UniProt Q9H2X6)
[41] = biological target: Cyclin-dependent kinase 9 (Homo sapiens) (UniProt P50750)
[42] = biological target: Homeodomain-interacting protein kinase 3 (Homo sapiens) (UniProt Q9H422)
[43] = biological target: Mitogen-activated protein kinase kinase kinase 6 (Homo sapiens) (UniProt O95382)
[44] = biological target: Serine/threonine-protein kinase Sgk2 (Homo sapiens) (UniProt Q9HBY8)
[45] = biological target: Tyrosine-protein kinase JAK3 (Homo sapiens) (UniProt P52333)
[46] = Compound concentration 1000.0 nM
[47] = Compound concentration 100.0 nM

Chain of Proto-oncogene tyrosine-protein kinase receptor Ret (Homo sapiens), P07949 [V804M] (P07949 whole entry V804M): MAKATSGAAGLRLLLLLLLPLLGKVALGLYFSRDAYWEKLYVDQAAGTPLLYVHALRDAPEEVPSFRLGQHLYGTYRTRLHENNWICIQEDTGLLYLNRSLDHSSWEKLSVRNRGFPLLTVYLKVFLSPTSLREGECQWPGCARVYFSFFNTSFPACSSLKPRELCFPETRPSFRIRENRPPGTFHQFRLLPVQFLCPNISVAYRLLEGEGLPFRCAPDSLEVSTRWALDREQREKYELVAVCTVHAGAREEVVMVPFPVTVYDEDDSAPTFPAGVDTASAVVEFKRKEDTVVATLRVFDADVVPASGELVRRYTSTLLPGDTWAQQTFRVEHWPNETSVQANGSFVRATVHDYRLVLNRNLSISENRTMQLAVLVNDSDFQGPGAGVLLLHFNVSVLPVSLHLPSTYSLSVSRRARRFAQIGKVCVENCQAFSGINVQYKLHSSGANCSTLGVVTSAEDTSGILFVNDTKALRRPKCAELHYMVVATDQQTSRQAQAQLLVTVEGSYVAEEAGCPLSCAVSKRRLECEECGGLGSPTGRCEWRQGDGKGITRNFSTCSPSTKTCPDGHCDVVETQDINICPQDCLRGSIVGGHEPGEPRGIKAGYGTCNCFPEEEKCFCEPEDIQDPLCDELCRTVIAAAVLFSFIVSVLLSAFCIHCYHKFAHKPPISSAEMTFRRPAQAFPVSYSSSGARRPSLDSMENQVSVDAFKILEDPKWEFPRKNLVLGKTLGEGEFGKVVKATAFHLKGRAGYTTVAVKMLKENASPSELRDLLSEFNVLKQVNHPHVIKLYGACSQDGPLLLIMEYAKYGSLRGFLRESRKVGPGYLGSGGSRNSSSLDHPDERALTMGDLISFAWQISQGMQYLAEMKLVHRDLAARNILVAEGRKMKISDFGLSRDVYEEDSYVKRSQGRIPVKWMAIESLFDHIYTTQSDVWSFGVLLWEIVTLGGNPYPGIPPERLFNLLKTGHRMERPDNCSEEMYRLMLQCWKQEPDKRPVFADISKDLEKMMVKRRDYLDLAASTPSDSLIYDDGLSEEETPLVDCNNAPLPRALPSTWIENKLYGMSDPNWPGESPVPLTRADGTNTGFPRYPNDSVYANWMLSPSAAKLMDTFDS
Chain of Mitogen-activated protein kinase 11 (Homo sapiens) (Q15759 whole entry): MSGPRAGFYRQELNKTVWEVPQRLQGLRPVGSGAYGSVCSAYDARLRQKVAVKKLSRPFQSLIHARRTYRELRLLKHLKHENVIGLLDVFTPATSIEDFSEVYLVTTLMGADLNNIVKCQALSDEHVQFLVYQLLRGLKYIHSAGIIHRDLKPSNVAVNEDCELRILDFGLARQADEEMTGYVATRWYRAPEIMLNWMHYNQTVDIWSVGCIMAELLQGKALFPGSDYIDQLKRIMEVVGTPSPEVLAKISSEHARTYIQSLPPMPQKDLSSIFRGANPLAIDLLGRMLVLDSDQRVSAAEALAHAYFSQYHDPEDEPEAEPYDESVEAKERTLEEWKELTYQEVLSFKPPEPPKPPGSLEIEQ
Chain of Phosphatidylinositol 4,5-bisphosphate 3-kinase catalytic subunit alpha isoform (Homo sapiens), P42336 [H1047L] (P42336 whole entry H1047L, canonical isoform): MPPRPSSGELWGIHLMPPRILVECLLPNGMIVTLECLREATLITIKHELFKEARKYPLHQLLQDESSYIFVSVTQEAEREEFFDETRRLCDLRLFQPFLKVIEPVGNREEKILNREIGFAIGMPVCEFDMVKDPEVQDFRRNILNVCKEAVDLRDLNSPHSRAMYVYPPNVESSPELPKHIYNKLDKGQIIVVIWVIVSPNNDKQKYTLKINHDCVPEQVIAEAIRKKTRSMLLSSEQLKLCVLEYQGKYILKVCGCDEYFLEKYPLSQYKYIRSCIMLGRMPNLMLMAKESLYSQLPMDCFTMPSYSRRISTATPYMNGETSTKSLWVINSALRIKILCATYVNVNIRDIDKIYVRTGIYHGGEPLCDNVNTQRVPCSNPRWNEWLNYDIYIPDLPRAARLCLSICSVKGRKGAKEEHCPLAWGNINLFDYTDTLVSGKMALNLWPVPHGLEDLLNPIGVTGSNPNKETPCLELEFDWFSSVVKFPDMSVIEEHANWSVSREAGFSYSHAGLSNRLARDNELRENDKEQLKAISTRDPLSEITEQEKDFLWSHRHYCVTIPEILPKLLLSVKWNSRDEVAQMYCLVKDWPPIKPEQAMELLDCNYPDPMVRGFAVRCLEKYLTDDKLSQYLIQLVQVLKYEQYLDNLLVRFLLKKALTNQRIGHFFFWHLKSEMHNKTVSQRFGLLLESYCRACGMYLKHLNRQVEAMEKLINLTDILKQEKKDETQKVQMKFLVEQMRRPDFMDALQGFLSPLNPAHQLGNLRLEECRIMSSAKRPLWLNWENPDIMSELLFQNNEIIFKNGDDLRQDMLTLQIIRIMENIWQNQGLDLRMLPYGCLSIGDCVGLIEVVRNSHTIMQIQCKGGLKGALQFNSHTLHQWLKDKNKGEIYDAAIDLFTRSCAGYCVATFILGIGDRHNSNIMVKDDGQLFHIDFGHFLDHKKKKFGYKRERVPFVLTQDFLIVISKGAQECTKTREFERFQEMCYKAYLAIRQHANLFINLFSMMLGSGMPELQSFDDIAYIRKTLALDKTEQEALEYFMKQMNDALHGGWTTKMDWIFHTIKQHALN
Chain of MAP/microtubule affinity-regulating kinase 4 (Homo sapiens) (Q96L34 whole entry): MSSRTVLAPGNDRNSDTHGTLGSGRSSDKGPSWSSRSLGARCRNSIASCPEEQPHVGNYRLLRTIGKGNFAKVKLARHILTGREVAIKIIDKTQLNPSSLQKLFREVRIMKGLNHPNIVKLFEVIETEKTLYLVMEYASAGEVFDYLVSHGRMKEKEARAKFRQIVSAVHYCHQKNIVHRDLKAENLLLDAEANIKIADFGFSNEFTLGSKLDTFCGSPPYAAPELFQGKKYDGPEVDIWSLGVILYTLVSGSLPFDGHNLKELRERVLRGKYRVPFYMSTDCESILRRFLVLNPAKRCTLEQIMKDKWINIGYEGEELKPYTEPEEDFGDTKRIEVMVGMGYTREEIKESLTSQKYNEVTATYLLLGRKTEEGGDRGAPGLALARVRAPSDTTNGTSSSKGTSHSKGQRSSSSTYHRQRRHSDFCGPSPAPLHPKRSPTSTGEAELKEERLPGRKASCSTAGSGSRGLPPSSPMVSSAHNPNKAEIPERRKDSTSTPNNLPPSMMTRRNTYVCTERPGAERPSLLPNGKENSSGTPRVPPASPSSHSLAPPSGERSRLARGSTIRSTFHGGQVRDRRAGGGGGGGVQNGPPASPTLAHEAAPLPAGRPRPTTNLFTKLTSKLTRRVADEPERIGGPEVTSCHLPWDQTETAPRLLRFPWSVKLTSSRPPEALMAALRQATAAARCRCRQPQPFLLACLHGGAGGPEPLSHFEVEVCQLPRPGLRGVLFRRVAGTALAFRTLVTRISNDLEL
Chain of 5'-AMP-activated protein kinase catalytic subunit alpha-2 (Homo sapiens) (P54646 whole entry, looked up): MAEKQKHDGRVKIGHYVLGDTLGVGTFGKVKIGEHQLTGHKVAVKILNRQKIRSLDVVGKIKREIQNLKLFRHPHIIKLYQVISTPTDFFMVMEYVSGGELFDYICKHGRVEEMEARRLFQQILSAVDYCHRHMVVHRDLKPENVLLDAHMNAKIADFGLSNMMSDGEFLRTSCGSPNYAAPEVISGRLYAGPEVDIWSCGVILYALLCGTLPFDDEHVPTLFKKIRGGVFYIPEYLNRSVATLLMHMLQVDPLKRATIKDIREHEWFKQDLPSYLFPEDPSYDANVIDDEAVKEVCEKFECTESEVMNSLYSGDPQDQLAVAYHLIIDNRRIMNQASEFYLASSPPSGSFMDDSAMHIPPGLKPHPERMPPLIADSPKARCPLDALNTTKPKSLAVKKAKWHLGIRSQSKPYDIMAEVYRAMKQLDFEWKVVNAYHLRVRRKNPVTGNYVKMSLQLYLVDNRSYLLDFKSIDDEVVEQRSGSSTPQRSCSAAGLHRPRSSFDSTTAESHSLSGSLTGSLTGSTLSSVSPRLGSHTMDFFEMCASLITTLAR
Chain of Tyrosine-protein kinase JAK3 (Homo sapiens) (P52333 whole entry): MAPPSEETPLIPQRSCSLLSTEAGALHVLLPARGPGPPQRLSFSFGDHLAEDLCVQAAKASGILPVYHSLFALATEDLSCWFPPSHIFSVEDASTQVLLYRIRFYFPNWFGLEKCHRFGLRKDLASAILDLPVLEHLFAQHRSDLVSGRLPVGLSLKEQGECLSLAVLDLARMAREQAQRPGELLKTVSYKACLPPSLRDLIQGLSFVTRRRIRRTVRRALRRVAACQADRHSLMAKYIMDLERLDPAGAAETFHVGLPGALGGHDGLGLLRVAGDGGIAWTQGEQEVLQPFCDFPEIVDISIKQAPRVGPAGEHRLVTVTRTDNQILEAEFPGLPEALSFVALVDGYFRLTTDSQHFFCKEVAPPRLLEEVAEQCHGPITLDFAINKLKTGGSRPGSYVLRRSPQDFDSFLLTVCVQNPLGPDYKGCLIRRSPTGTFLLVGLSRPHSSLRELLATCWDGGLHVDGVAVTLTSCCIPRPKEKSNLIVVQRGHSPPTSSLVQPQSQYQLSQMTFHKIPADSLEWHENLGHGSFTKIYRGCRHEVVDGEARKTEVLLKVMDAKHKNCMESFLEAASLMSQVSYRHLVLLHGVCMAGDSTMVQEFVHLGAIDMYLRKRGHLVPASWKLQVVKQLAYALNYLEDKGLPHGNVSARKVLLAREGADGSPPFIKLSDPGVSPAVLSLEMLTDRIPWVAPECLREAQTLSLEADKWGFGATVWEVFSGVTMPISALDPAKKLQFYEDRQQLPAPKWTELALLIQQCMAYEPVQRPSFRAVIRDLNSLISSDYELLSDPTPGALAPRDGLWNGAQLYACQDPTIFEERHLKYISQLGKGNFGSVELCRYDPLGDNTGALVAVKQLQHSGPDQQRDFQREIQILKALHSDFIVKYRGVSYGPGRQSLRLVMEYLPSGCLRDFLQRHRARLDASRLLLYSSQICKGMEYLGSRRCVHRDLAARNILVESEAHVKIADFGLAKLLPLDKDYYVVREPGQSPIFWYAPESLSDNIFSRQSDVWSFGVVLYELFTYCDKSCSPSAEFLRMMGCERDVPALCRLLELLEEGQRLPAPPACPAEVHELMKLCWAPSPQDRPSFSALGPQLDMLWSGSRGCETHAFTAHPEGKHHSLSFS

Which results are given for `C[C@H](NC(=O)Nc1cc2[nH]ncc2c(CO)n1)c1ccccn1` [ERKi-NC]?
residual activity [1, 46]: 100%; residual activity [2, 46]: 100%; residual activity [3, 46]: 100%; inhibition [4]: 7.55%; residual activity [5, 46]: 100%; residual activity [6, 46]: 100%; residual activity [7, 46]: 100%; inhibition [8]: -0.282%; residual activity [9, 46]: 100%; residual activity [10, 46]: 100%; residual activity [11, 46]: 100%; residual activity [12, 46]: 100%; residual activity [13, 46]: 67.6%; residual activity [14, 46]: 100%; residual activity [15, 46]: 100%; inhibition [16]: 20%; residual activity [17, 46]: 100%; residual activity [18, 46]: 79.3%; residual activity [19, 46]: 100%; residual activity [20, 46]: 97.6%; residual activity [21, 46]: 81.7%; residual activity [22, 46]: 100%; residual activity [23, 46]: 97.3%; residual activity [24, 46]: 100%; residual activity [25, 46]: 100%; inhibition [26]: -8.5%; residual activity [27, 46]: 100%; residual activity [28, 46]: 100%; residual activity [29, 46]: 100%; residual activity [30, 46]: 100%; residual activity [31, 46]: 97.1%; residual activity [32, 46]: 100%; residual activity [33, 46]: 100%; residual activity [34, 46]: 99.3%; residual activity [35, 46]: 100%; residual activity [36, 46]: 51%; residual activity [37, 46]: 67.9%; inhibition [38]: 4.18%; residual activity [39, 46]: 100%; residual activity [40, 46]: 83.9%; residual activity [41, 46]: 100%; residual activity [42, 46]: 85.1%; residual activity [43, 46]: 67.4%; residual activity [44, 46]: 100%; residual activity [45, 46]: 100%

Which residual activity [1, 47] does the source give for `C[C@@H](NC(=O)Nc1cc2[nH]ncc2c(CO)n1)c1ccccc1` [ERKi] here?
The residual activity was 96%.

And the residual activity [2, 47]?
The residual activity was 90.5%.

What about the residual activity [3, 47] of the same compound?
Its residual activity is 96.6%.

And the inhibition [4]?
The inhibition was 21.1%.

What about the residual activity [5, 47] of the same compound?
The residual activity was 85.5%.

And the residual activity [6, 47]?
Its residual activity is 37.1%.

What about the residual activity [7, 47] of the same compound?
The residual activity was 81.4%.

What about the inhibition [8] of the same compound?
The inhibition was 4.36%.

And the residual activity [9, 47]?
The residual activity was 77.4%.

What about the residual activity [10, 47] of the same compound?
Its residual activity is 98.5%.

What about the residual activity [11, 47] of the same compound?
Its residual activity is 83.1%.

And the residual activity [12, 47]?
The residual activity was 59.3%.

And the residual activity [13, 47]?
The residual activity was 82.5%.

What about the residual activity [14, 47] of the same compound?
The residual activity was 100%.

What about the residual activity [15, 47] of the same compound?
The residual activity was 86%.

And the inhibition [16]?
The inhibition was -1.87%.

What about the residual activity [17, 47] of the same compound?
Its residual activity is 83.9%.

And the residual activity [18, 47]?
The residual activity was 79.5%.

And the residual activity [19, 47]?
The residual activity was 100%.

And the residual activity [20, 47]?
Its residual activity is 79.8%.

And the residual activity [21, 47]?
The residual activity was 100%.

And the residual activity [22, 47]?
The residual activity was 95.8%.

And the residual activity [23, 47]?
The residual activity was 88.4%.

And the residual activity [24, 47]?
The residual activity was 99.5%.

And the residual activity [25, 47]?
The residual activity was 76.1%.

And the inhibition [26]?
Its inhibition is 16.1%.

And the residual activity [27, 47]?
The residual activity was 85.7%.

What about the residual activity [28, 47] of the same compound?
The residual activity was 73%.

And the residual activity [29, 47]?
Its residual activity is 74.1%.

What about the residual activity [30, 47] of the same compound?
Its residual activity is 79.6%.

And the residual activity [31, 47]?
Its residual activity is 89.2%.

What about the residual activity [32, 47] of the same compound?
Its residual activity is 82.1%.

What about the residual activity [33, 47] of the same compound?
Its residual activity is 59.6%.

And the residual activity [34, 47]?
Its residual activity is 80%.

What about the residual activity [35, 47] of the same compound?
The residual activity was 100%.

And the residual activity [36, 47]?
The residual activity was 100%.

What about the residual activity [37, 47] of the same compound?
The residual activity was 97.4%.

And the inhibition [38]?
Its inhibition is -7.28%.

And the residual activity [39, 47]?
Its residual activity is 94.6%.

What about the residual activity [40, 47] of the same compound?
Its residual activity is 85.6%.

What about the residual activity [41, 47] of the same compound?
The residual activity was 95.4%.

And the residual activity [42, 47]?
The residual activity was 96.2%.

And the residual activity [43, 47]?
The residual activity was 99.3%.

What about the residual activity [44, 47] of the same compound?
The residual activity was 66.7%.

And the residual activity [45, 47]?
The residual activity was 64.5%.
